Laboratory results as given in the NIST ThermoML archive (doi:10.1021/je500053c).
± gives the expanded uncertainty stated by the source.

Tests used:
[1] = 101.33 kPa, Liquid, Vibrating tube method
[2] = xn = mol fraction of the nth substance listed; conditions: 101 kPa, Liquid, Vibrating tube method

CCCCCC[n+]1ccn(C)c1.O=S(=O)([N-]S(=O)(=O)C(F)(F)F)C(F)(F)F
[1]
Conditions | mass density [kg/m3]
288.15 K | 1381.4 ± 0.6
298.15 K | 1372 ± 0.6
308.15 K | 1362.7 ± 0.5
318.15 K | 1353.5 ± 0.5

CCCCn1cc[n+](C)c1.CS(=O)(=O)[O-] [1-butyl-3-methylimidazolium methanesulfonate] + O
mass density [kg/m3], [2]
Conditions | x1 = 0.025 | x1 = 0.05 | x1 = 0.075 | x1 = 0.1 | x1 = 0.148 | x1 = 0.199 | x1 = 0.251 | x1 = 0.298 | x1 = 0.346 | x1 = 0.441
298.15 K | 1038.1 ± 2.9 | 1068.4 ± 2.1 | 1089.3 ± 1.5 | 1104.5 ± 1 | 1123.9 ± 0.7 | 1137.1 ± 0.5 | 1145.7 ± 0.4 | 1151.3 ± 0.3 | 1154.9 ± 0.3 | 1160.6 ± 0.3
313.15 K | 1031.2 ± 2.7 | 1059.7 ± 2 | 1079.7 ± 1.4 | 1093.5 ± 0.9 | 1113.6 ± 0.7 | 1126.8 ± 0.5 | 1135.5 ± 0.4 | 1141.2 ± 0.3 | 1144.8 ± 0.3 | 1150.6 ± 0.3
323.15 K | 1025.9 ± 2.6 | 1053.6 ± 1.9 | 1073.1 ± 1.4 | 1087.6 ± 0.9 | 1106.6 ± 0.7 | 1119.9 ± 0.5 | 1128.6 ± 0.4 | 1134.4 ± 0.3 | 1138.1 ± 0.3 | 1144 ± 0.3
333.15 K | 1020.1 ± 2.6 | 1047.1 ± 1.9 | 1066.2 ± 1.4 | 1080.5 ± 0.9 | 1099.5 ± 0.7 | 1112.9 ± 0.5 | 1121.7 ± 0.4 | 1127.6 ± 0.3 | 1131.4 ± 0.3 | 1137.3 ± 0.3
343.15 K | 1013.9 ± 2.5 | 1040.3 ± 1.8 | 1059.2 ± 1.3 | 1073.3 ± 0.9 | 1092.3 ± 0.7 | 1105.7 ± 0.5 | 1114.7 ± 0.4 | 1120.7 ± 0.3 | 1124.6 ± 0.3 | 1130.7 ± 0.3
358.15 K | 1003.9 ± 2.5 | 1029.7 ± 1.8 | 1048.2 ± 1.3 | 1062.3 ± 0.9 | 1081.2 ± 0.7 | 1094.9 ± 0.5 | 1104.1 ± 0.4 | 1110.3 ± 0.3 | 1114.4 ± 0.3 | 1120.7 ± 0.3

O [water] + CCCCn1cc[n+](C)c1.CS(=O)(=O)[O-]
[2], x2 = 0
Conditions | mass density [kg/m3]
333.15 K | 983.2 ± 0.2
343.15 K | 977.8 ± 0.2
358.15 K | 968.3 ± 0.2
